Key:
[1] = biological target: Thymidine kinase (Human herpesvirus 1); assay: Inhibition of HSV-1 Thymidine kinase
[2] = biological target: Thymidine kinase (Human herpesvirus 1); assay: Binding affinity against HSV-1 Thymidine kinase

| IC50 [1] | Ki [2] | SMILES |
| --- | --- | --- |
| > 50 µM |  | CCCO[C@@H]1O[C@@H](n2cc(C)c(=O)[nH]c2=O)C[C@H]1O [1-((2R,4R,5R)-4-Hydroxy-5-propoxy-tetrahydro-furan-2-yl)-5-methyl-1H-pyrimidine-2,4-dione] |
| > 50 µM |  | CCO[C@@H]1O[C@@H](n2cc(C)c(=O)[nH]c2=O)C[C@H]1O [1-((2R,4R,5R)-5-Ethoxy-4-hydroxy-tetrahydro-furan-2-yl)-5-methyl-1H-pyrimidine-2,4-dione] |
| 3 µM | 2 µM | C#C[C@H]1O[C@@H](n2cc(C)c(=O)[nH]c2=O)C[C@@H]1O [1-((2R,4S,5R)-5-Ethynyl-4-hydroxy-tetrahydro-furan-2-yl)-5-methyl-1H-pyrimidine-2,4-dione] |
| > 50 µM |  | CCCO[C@H]1O[C@@H](n2cc(C)c(=O)[nH]c2=O)C[C@@H]1O [1-((2R,4S,5S)-4-Hydroxy-5-propoxy-tetrahydro-furan-2-yl)-5-methyl-1H-pyrimidine-2,4-dione] |
| 50 µM |  | CCO[C@H]1O[C@@H](n2cc(C)c(=O)[nH]c2=O)C[C@@H]1O [1-((2R,4S,5S)-5-Ethoxy-4-hydroxy-tetrahydro-furan-2-yl)-5-methyl-1H-pyrimidine-2,4-dione] |
| > 50 µM |  | Cc1cn([C@H]2C[C@@H](O)[C@H](OCCCc3ccccc3)O2)c(=O)[nH]c1=O [1-[(2R,4R,5R)-4-Hydroxy-5-(3-phenyl-propoxy)-tetrahydro-furan-2-yl]-5-methyl-1H-pyrimidine-2,4-dione] |
| 10 µM | 4.3 µM | Cc1cn([C@H]2C[C@H](O)[C@@H](OCCCc3ccccc3)O2)c(=O)[nH]c1=O [1-[(2R,4S,5S)-4-Hydroxy-5-(3-phenyl-propoxy)-tetrahydro-furan-2-yl]-5-methyl-1H-pyrimidine-2,4-dione] |

| SMILES | IC50 [1] | Ki [2] |
| --- | --- | --- |
| Cc1cn([C@H]2C[C@@H](O)[C@H](OC(C)(C)C)O2)c(=O)[nH]c1=O [1-((2R,4R,5R)-5-tert-Butoxy-4-hydroxy-tetrahydro-furan-2-yl)-5-methyl-1H-pyrimidine-2,4-dione] | > 50 µM |  |
| Cc1cn([C@H]2C[C@H](O)[C@@H](OC(C)(C)C)O2)c(=O)[nH]c1=O [1-((2R,4S,5S)-5-tert-Butoxy-4-hydroxy-tetrahydro-furan-2-yl)-5-methyl-1H-pyrimidine-2,4-dione] | > 50 µM |  |

Source: BindingDB's records for doi:10.1016/S0960-894X(00)80020-7 (1993)
